Converted amounts (≈) assume the structure as drawn.
Tests used:
[1] = Solubility test in first and second liquid of the Japanese Pharmacopoeia; settings: Solubility
Experimental: The solubilities of the substance under test in the first liquid (JP1, pH=1.2) of the Japanese Pharmacopoeia and the second liquid (JP2, pH=6.8) of the Japanese Pharmacopoeia, were evaluated.

hα4 and β1 integrins = molecular target: T1, hα4 and β1 integrins (Homo sapiens, UniProt P05556+P13612); experiment: In vitro inhibition of binding between CHO cells expressing hα4 and β1 integrins and Eu3+-hVCAM-1 D1D7-IgG; settings: for Ki: CHO cells expressing hα4 and β1 integrins, Eu3+-hVCAM-1 D1D7-IgG ligand, without HSA; for IC50: in the presence of 3% human serum albumin (HSA final concentration 3%)
T1 construct: expressed in transfected cells; host or cells: CHO cells
Method in brief: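 Bound europium-labelled VCAM-1 D1D7-IgG on α4β1-expressing CHO cells was measured by time-resolved fluorescence after washing at 4 °C. Ligand (2 nM working dilution) and test compound, with or without 3% final HSA, were co-incubated for 1 h at room temperature in Mn²⁺-containing HEPES buffer, pH 7.5. IC50 came from % binding inhibition; Ki was calculated from ligand concentration and Scatchard Kd.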

[2] = first liquid of the Japanese Pharmacopoeia (JP1), pH 1.2, simulated gastric fluid, First liquid of Japanese Pharmacopoeia (μg/mL), JP1, pH=1.2
[3] = second liquid of the Japanese Pharmacopoeia (JP2), pH 6.8, aqueous buffer, Second liquid of Japanese Pharmacopoeia (μg/mL), JP2, pH=6.8

T1 sequence (P13612 34-1032): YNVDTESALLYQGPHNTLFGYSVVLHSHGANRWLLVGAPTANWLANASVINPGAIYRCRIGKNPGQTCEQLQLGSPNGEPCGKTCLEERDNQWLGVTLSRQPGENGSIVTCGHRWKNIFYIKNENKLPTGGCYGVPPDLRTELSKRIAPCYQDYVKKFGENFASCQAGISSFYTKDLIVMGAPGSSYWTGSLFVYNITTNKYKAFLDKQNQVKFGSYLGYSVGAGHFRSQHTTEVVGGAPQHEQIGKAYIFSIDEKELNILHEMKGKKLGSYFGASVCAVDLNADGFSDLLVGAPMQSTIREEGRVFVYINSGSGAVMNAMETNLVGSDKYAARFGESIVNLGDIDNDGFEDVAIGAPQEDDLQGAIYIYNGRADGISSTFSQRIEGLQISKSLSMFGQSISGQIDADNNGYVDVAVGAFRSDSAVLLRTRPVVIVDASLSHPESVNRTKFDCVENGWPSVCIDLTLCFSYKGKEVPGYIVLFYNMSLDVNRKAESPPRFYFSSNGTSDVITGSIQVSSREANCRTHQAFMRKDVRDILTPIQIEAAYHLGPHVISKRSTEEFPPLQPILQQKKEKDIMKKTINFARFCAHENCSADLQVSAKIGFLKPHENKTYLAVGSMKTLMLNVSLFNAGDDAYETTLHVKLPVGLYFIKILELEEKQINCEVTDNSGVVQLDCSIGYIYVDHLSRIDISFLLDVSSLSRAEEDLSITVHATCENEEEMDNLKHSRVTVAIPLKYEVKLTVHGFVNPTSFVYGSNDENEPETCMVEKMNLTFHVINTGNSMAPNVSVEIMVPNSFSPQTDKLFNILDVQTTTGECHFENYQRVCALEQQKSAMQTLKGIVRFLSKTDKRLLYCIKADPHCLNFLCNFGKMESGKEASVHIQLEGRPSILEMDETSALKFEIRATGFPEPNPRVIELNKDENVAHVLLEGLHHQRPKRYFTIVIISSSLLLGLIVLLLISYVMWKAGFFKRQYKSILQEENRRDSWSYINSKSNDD
T1 sequence (P05556 21-798): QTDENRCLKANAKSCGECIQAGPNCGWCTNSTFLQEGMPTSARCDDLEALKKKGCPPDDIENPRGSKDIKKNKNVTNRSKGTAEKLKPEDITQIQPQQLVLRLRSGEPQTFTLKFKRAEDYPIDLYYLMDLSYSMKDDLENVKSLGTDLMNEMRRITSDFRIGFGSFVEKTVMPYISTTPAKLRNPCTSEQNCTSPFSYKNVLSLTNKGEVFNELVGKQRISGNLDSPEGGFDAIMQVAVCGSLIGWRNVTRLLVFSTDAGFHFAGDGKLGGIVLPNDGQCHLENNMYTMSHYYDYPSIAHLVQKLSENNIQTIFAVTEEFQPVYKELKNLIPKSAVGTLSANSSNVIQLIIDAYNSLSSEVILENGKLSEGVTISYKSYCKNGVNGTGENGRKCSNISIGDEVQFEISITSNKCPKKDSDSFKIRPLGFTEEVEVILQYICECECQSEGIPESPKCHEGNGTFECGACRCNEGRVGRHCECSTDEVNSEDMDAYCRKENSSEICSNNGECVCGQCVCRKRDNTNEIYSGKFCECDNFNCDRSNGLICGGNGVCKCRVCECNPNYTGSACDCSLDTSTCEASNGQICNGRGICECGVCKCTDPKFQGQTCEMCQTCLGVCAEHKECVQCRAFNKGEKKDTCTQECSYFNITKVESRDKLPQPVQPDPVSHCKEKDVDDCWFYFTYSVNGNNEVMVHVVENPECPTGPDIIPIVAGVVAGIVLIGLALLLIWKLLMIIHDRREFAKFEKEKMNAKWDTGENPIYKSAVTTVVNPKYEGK

Row | solubility [1, 2] [µg/mL] | solubility [1, 3] [µg/mL] | Ki (hα4 and β1 integrins) [nM] | IC50 (hα4 and β1 integrins) [nM] | SMILES
1 | 1910 (≈ 2780 µM) | 1690 (≈ 2460 µM) | 1 | 8.6 | COCCC1CN([C@H]2C[C@@H](CO[C@H]3CC[C@H](C(=O)O)CC3)N(C(=O)Cc3cc(Cl)c(NC(=O)c4csc5ccccc45)cc3F)C2)C1 [Example 12, Trans-4-[1-[[4-[(benzo[b]thiophen-3-ylcarbonyl)amino]-5-chloro-2-fluorophenyl]acetyl]-(4S)-[3-(2-methoxyethyl)azetidin-1-yl]-(2S)-pyrrolidinylmethoxy]cyclohexanecarboxylic acid]
2 | 1000 (≈ 1460 µM) | 1000 (≈ 1460 µM) | 1.9 | 22 | O=C(Nc1cc(Cl)c(CC(=O)N2C[C@@H](N3C[C@@H]4OCO[C@@H]4C3)C[C@H]2CO[C@H]2CC[C@H](C(=O)O)CC2)cc1Cl)c1coc2ccccc12 [Example 73, Trans-4-[1-[[4-[(benzo[b]furan-3-ylcarbonyl)amino]-2,5-dichlorophenyl]acetyl]-(4S)-[(3a,6a-cis)-tetrahydro[1,3]dioxolo[4,5-c]pyrrol-5-yl]-(2S)-pyrrolidinylmethoxy]cyclohexanecarboxylic acid]
3 | 1000 (≈ 1380 µM) | 1000 (≈ 1380 µM) | 13 | 71 | Cn1cc(C(=O)Nc2cc(Cl)c(CC(=O)N3C[C@@H](N4CC5CC4CN5C4CC4)C[C@H]3CO[C@H]3CC[C@H](C(=O)O)CC3)cc2Cl)c2ccccc21 (stereo partly drawn) [Example 164, Trans-4-[1-[[2,5-dichloro-4-[(1-methyl-1H-indol-3-ylcarbonyl)amino]phenyl]acetyl]-(4S)-[(1S,4S)-2-cyclopropyl-2,5-diazabicyclo[2.2.1]heptan-5-yl]-(2S)-pyrrolidinylmethoxy]cyclohexanecarboxylic acid]
4 | 1200 (≈ 1640 µM) | 1200 (≈ 1640 µM) | 7.3 | 15 | COC[C@@H]1C[C@H](OC)CN1[C@H]1C[C@@H](CO[C@H]2CC[C@H](C(=O)O)CC2)N(C(=O)Cc2cc(Cl)c(NC(=O)c3cn(C)c4ccccc34)cc2Cl)C1 [Example 46, Trans-4-[1-[[2,5-dichloro-4-[(1-methyl-1H-indol-3-ylcarbonyl)amino]phenyl]acetyl]-(4S)-[(2S)-methoxymethyl-(4S)-methoxypyrrolidin-1-yl]-(2S)-pyrrolidinylmethoxy]cyclohexanecarboxylic acid]
5 | > 2000 | > 2000 | 5.9 | 20 | CO[C@H]1CCN([C@H]2C[C@@H](CO[C@H]3CC[C@H](C(=O)O)CC3)N(C(=O)Cc3cc(Cl)c(NC(=O)c4cn(C)c5ccccc45)cc3Cl)C2)C1 [Example 35, Trans-4-[1-[[2,5-dichloro-4-[(1-methyl-1H-indol-3-ylcarbonyl)amino]phenyl]acetyl]-(4S)-[(3S)-methoxypyrrolidin-1-yl]-(2S)-pyrrolidinylmethoxy]cyclohexanecarboxylic acid]
6 | 1100 (≈ 1550 µM) | 1100 (≈ 1550 µM) | 4.6 | 12 | O=C(Nc1cc(F)c(CC(=O)N2C[C@@H](N3CC(CN4CCOCC4)C3)C[C@H]2CO[C@H]2CC[C@H](C(=O)O)CC2)cc1Cl)c1coc2ccccc12 [Example 30, Trans-4-[1-[[4-[(benzo[b]furan-3-ylcarbonyl)amino]-5-chloro-2-fluorophenyl]acetyl]-(4S)-[3-(4-morpholinylmethyl)azetidin-1-yl]-(2S)-pyrrolidinylmethoxy]cyclohexanecarboxylic acid]
7 | 1100 (≈ 1640 µM) | 1100 (≈ 1640 µM) |  |  | Cn1cc(C(=O)Nc2cc(Cl)c(CC(=O)N3C[C@@H](N4CC(C)(C)C4)C[C@H]3CO[C@H]3CC[C@H](C(=O)O)CC3)cc2Cl)c2ccccc21 [Example 15, Trans-4-[1-[[2,5-dichloro-4-[(1-methyl-1H-indol-3-ylcarbonyl)amino]phenyl]acetyl]-(4S)-(3,3-dimethylazetidin-1-yl)-(2S)-pyrrolidinylmethoxy]cyclohexanecarboxylic acid]
8 | 1100 (≈ 1680 µM) | 1000 (≈ 1530 µM) |  |  | Cn1cc(C(=O)Nc2cc(F)c(CC(=O)N3C[C@@H](N4CC(C)(C)C4)C[C@H]3CO[C@H]3CC[C@H](C(=O)O)CC3)cc2Cl)c2ccccc21 [Example 14, Trans-4-[1-[[5-chloro-2-fluoro-4-[(1-methyl-1H-indol-3-ylcarbonyl)amino]phenyl]acetyl]-(4S)-(3,3-dimethylazetidin-1-yl)-(2S)-pyrrolidinylmethoxy]cyclohexanecarboxylic acid]
9 |  |  | 3.5 | 14 | O=C(Nc1cc(Cl)c(CC(=O)N2C[C@@H](N3CCN(C4CCCCC4)CC3)C[C@H]2CO[C@H]2CC[C@H](C(=O)O)CC2)cc1Cl)c1coc2ccccc12 [Example 143, Trans-4-[1-[[4-[(benzo[b]furan-3-ylcarbonyl)amino]-2,5-dichlorophenyl]acetyl]-(4S)-[4-cyclohexylpiperazin-1-yl]-(2S)-pyrrolidinylmethoxy]cyclohexanecarboxylic acid]
10 |  |  | 3.4 | 26 | O=C(Nc1cc(Cl)c(CC(=O)N2C[C@@H](N3CCN(CC(F)(F)F)CC3)C[C@H]2CO[C@H]2CC[C@H](C(=O)O)CC2)cc1Cl)c1coc2ccccc12 [Example 125, Trans-4-[1-[[4-[(benzo[b]furan-3-ylcarbonyl)amino]-2,5-dichlorophenyl]acetyl]-(4S)-[4-(2,2,2-trifluoroethyl)piperazin-1-yl]-(2S)-pyrrolidinylmethoxy]cyclohexanecarboxylic acid]
11 |  |  | 2 | 15 | CCOC1CCN([C@H]2C[C@@H](CO[C@H]3CC[C@H](C(=O)O)CC3)N(C(=O)Cc3cc(Cl)c(NC(=O)c4coc5ccccc45)cc3Cl)C2)CC1 [Example 105, Trans-4-[1-[[4-[(benzo[b]furan-3-ylcarbonyl)amino]-2,5-dichlorophenyl]acetyl]-(4S)-(4-ethoxypiperidin-1-yl)-(2S)-pyrrolidinylmethoxy]cyclohexanecarboxylic acid]
12 |  |  | 2 | 38 | CCOC[C@@H]1CCCN1[C@H]1C[C@@H](CO[C@H]2CC[C@H](C(=O)O)CC2)N(C(=O)Cc2cc(Cl)c(NC(=O)c3csc4ccccc34)cc2Cl)C1 [Example 43, Trans-4-[1-[[4-[(benzo[b]thiophen-3-ylcarbonyl)amino]-2,5-dichlorophenyl]acetyl]-(4S)-[(2S)-ethoxymethylpyrrolidin-1-yl]-(2S)-pyrrolidinylmethoxy]cyclohexanecarboxylic acid]
13 |  |  | 3 | 8.9 | CC(C)(C)N1CCN([C@H]2C[C@@H](CO[C@H]3CC[C@H](C(=O)O)CC3)N(C(=O)Cc3cc(Cl)c(NC(=O)c4coc5ccccc45)cc3Cl)C2)CC1 [Example 114, Trans-4-[1-[[4-[(benzo[b]furan-3-ylcarbonyl)amino]-2,5-dichlorophenyl]acetyl]-(4S)-[4-(tert-butyl)piperazin-1-yl]-(2S)-pyrrolidinylmethoxy]cyclohexanecarboxylic acid]
14 |  |  | 1.8 | 48 | CCC1(OC)CN([C@H]2C[C@@H](CO[C@H]3CC[C@H](C(=O)O)CC3)N(C(=O)Cc3cc(Cl)c(NC(=O)c4csc5ccccc45)cc3F)C2)C1 [Example 17, Trans-4-[1-[[4-[(benzo[b]thiophen-3-ylcarbonyl)amino]-5-chloro-2-fluorophenyl]acetyl]-(4S)-(3-ethyl-3-methoxyazetidin-1-yl)-(2S)-pyrrolidinylmethoxy]cyclohexanecarboxylic acid]

Reference: patent publication US8129366B2, “VLA-4 inhibitory drug” (Daiichi Sankyo Company, Limited, priority 2005, dated 2012)
